{
  "source": "patent US5302599A",
  "about": "“Therapeutically useful heterocyclic indole compounds” (The Upjohn Company, priority 1992, dated 1994)",
  "key": {"[1]": {"target": "T1, 5-hydroxytryptamine (HT1A) receptor (Bos taurus, UniProt F6Q2H9)", "T1 construct": "from tissue; host or cells: bovine brain homogenate", "T1 sequence (F6Q2H9 1-422)": "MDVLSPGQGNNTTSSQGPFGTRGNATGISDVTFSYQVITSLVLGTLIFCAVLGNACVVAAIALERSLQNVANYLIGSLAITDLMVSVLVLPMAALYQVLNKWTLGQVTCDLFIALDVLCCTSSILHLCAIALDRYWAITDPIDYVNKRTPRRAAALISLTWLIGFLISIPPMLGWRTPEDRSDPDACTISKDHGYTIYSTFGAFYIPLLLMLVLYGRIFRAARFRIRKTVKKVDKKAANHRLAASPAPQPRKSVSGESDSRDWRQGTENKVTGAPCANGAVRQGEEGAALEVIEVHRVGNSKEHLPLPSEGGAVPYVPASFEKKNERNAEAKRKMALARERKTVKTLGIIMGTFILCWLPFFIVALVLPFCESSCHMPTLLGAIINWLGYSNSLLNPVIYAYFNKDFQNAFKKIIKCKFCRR", "assay": "Inhibition of 3H-8-OH-DPAT binding in a bovine brain homogenate (5HT1A binding)", "quoted_text": "Binding: Inhibition of 3H-8-OH-DPAT binding in a bovine brain homogenate. Potency is given as nanomole (nM) dose required to inhibit 50% of DPAT binding (IC50). This test measures ability to bind to 5-hydroxytryptamine (HT1A ) receptor."}, "[2]": {"assay": "Hypothermia in mice after subcutaneous injection", "assay_type": "in vivo", "details": "20 min, dose required to depress temperature (2° C.) in two of four mice, Spearman-Karber; for ED50: Mus musculus, sc", "procedure": "Hypothermia: Starting with a dose of 30 mg/kg, four mice are injected subcutaneously with test compound. Twenty minutes later, the number of animals whose body temperature has decreased by 2° C. or more are counted. […] The time for last statistically significant drug affect on mean body temperature is indicated in minutes. […] Potency is given as mg/kg ED50 (dose required to depress temperature in two of four mice) as measured by Spearman-Karber statistics."}, "[3]": {"target": "dopamine D2 receptors (Rattus norvegicus, UniProt P61169)", "sequence (P61169 whole entry)": "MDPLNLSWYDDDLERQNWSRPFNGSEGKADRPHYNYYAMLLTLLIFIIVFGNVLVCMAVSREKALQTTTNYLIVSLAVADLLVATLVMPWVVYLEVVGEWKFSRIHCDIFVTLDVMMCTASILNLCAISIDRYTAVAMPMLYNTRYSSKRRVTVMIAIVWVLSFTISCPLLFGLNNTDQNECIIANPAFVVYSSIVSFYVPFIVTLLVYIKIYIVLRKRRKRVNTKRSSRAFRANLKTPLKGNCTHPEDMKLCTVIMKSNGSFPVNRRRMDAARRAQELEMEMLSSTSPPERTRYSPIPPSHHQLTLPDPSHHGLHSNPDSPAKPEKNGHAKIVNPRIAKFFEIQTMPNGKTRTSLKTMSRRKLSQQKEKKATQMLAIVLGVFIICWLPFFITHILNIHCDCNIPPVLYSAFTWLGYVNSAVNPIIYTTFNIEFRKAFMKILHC", "assay": "biochemical", "assay_type": "binding", "source_text": "For Dopamine (D2): Inhibition of 3H-raclopride binding in rat striata homogenate. […] This test measures the ability to bind to dopamine D2 receptors."}, "[4]": {"details": "5HT1A Binding IC50, 3H-8-OH-DPAT"}, "[5]": {"details": "read-out: Hypothermia ED50, mice, subcutaneous"}, "[6]": {"details": "3H-raclopride, rat striata homogenate, read-out: Dopamine D2-Receptor Binding IC50"}, "[7]": {"details": "3H-8-OH-DPAT, read-out: 5HT1A Binding IC50"}, "[8]": {"details": "mice, subcutaneous, read-out: Hypothermia ED50"}},
  "note": "Counter-ions that a name gives are not always drawn. Like-named read-outs stand apart in the source and are kept apart here.",
  "data": [
    {"smiles": "COC(=O)c1cc2c3c(ccc2[nH]1)OCC(CN1CCC2(CC1)C(=O)NCN2c1ccccc1)O3", "note": "(stereo not shown) [XIa, 2,3-dihydro-2-((4-oxo-1-phenyl-1,3,8-triazaspiro(4.5)-dec-8-yl)methyl)-7H-1,4-dioxino(2,3-e)indol-8-methyl ester]", "values": [
      {"measurement": "IC50", "setting": "[1]; [4]", "value": 0.47, "unit": "nM"},
      {"measurement": "ED50", "setting": "[2]; [5]", "value": 30, "unit": "mg/kg"}
    ]},
    {"smiles": "O=C(O)c1cc2c3c(ccc2[nH]1)OCC(CN1CCC2(CC1)C(=O)NCN2c1ccccc1)O3", "note": "(stereo not shown) [XIb]", "values": [
      {"measurement": "IC50", "setting": "[1]; [4]", "value": 36.3, "unit": "nM"},
      {"measurement": "ED50", "setting": "[2]; [5]", "value": 17.3, "unit": "mg/kg"}
    ]},
    {"smiles": "NC(=O)c1cc2c3c(ccc2[nH]1)OCC(CN1CCC2(CC1)C(=O)NCN2c1ccccc1)O3", "note": "(stereo not shown) [XIc, 7H-1,4-Dioxino(2,3-e)indole-8-carboxamide, 2,3-dihydro-2-((4-oxo-1-phenyl-1,3,8-triazaspiro(4.5)dec-8-yl)methyl)-]", "values": [
      {"measurement": "IC50", "setting": "[1]; [4]", "value": 0.29, "unit": "nM"}
    ]},
    {"smiles": "N#Cc1cc2c3c(ccc2[nH]1)OCC(CN1CCC2(CC1)C(=O)NCN2c1ccccc1)O3", "note": "(stereo not shown) [XId, 7H-1,4-Dioxino(2,3-e)indole-8-carbonitrile, 2,3-dihydro-2-((4-oxo-1-phenyl-1,3,8-triazaspiro(4.5)dec-8-yl)methyl)-]", "values": [
      {"measurement": "IC50", "setting": "[1]; [4]", "value": 0.17, "unit": "nM"},
      {"measurement": "IC50", "setting": "[3]", "value": 1.53, "unit": "nM"},
      {"measurement": "ED50", "setting": "[2]; [5]", "value": 0.01, "unit": "mg/kg"}
    ]},
    {"smiles": "CCCCOC(=O)c1cc2c3c(ccc2[nH]1)OCC(CN1CCC2(CC1)C(=O)NCN2c1ccccc1)O3", "note": "(stereo not shown) [XIe, 7H-1,4-Dioxino(2,3-e)indole-8-carboxylic acid, 2,3-dihydro-2-((4-oxo-1-phenyl-1,3,8-triazaspiro(4.5)dec-8-yl)methyl)-, butyl ester]", "values": [
      {"measurement": "IC50", "setting": "[1]; [4]", "value": 13.5, "unit": "nM"}
    ]},
    {"smiles": "O=C(OCc1ccccc1)c1cc2c3c(ccc2[nH]1)OCC(CN1CCC2(CC1)C(=O)NCN2c1ccccc1)O3", "note": "(stereo not shown) [XIf, 7H-1,4-Dioxino(2,3-e)indole-8-carboxylic acid, 2,3-dihydro-2-((4-oxo-1-phenyl-1,3,8-triazaspiro(4.5)dec-8-yl)methyl)-, phenylmethyl ester]", "values": [
      {"measurement": "IC50", "setting": "[1]; [4]", "value": 8.4, "unit": "nM"},
      {"measurement": "IC50", "setting": "[3]; [6]", "value": 190, "unit": "nM"},
      {"measurement": "ED50", "setting": "[2]; [5]", "value": 17.3, "unit": "mg/kg"}
    ]},
    {"smiles": "COC(=O)c1cc2c3c(ccc2[nH]1)OCC(CN1CCC(n2c(=O)[nH]c4ccccc42)CC1)O3", "note": "(stereo not shown) [XIg, 7H-1,4-Dioxino(2,3-e)indole-8-carboxylic acid, 2-((4-(2,3-dihydro-2-oxo-1H-benzimidazol-1-yl)-1-piperidinyl)methyl)-2,3-dihydro-, methyl ester, monohydrochloride]", "values": [
      {"measurement": "IC50", "setting": "[1]; [4]", "value": 3.7, "unit": "nM"}
    ]},
    {"smiles": "CCOC(=O)C1CCN(CC2COc3ccc4[nH]c(C(=O)OC)cc4c3O2)CC1", "note": "(stereo not shown) [XIh, 7H-1,4-Dioxino(2,3-e)indole-8-carboxylic acid, 2-((4-(ethoxycarbonyl-1-piperidinyl)methyl)-2,3-dihydro-, methyl ester, monohydrochloride]", "values": [
      {"measurement": "IC50", "setting": "[1]; [7]", "value": 9.6, "unit": "nM"},
      {"measurement": "IC50", "setting": "[3]; [6]", "value": 147, "unit": "nM"},
      {"measurement": "ED50", "setting": "[2]; [8]", "value": "> 30", "unit": "mg/kg"}
    ]},
    {"smiles": "COC(=O)c1cc2c3c(ccc2[nH]1)OCC(CN1CCC(Nc2ccccc2)(C(N)=O)CC1)O3", "note": "(stereo not shown) [XIi, 7H-1,4-Dioxino(2,3-e)indole-8-carboxylic acid, 2-((4(aminocarbonyl)-4-(phenylamino)-1-piperidinyl)methyl)-2,3-dihydro-, methyl ester]", "values": [
      {"measurement": "IC50", "setting": "[1]; [4]", "value": 79.3, "unit": "nM"}
    ]},
    {"smiles": "COC(=O)c1cc2c3c(ccc2[nH]1)OCC(CNCCCc1ccccc1)O3", "note": "(stereo not shown) [XIj, 7H-1,4-Dioxino(2,3-e)indole-8-carboxylic acid, 2,3-dihydro-2-((3-phenylpropyl)amino)methyl)-, methyl ester, monohydrochloride]", "values": [
      {"measurement": "IC50", "setting": "[1]; [7]", "value": 4, "unit": "nM"},
      {"measurement": "IC50", "setting": "[3]; [6]", "value": 54.6, "unit": "nM"},
      {"measurement": "ED50", "setting": "[2]; [8]", "value": 1.3, "unit": "mg/kg"}
    ]},
    {"smiles": "Cl.O=C(NCCCc1ccccc1)c1cc2c3c(ccc2[nH]1)OCC(CNCCCc1ccccc1)O3", "note": "(stereo not shown) [XIk, 7H-1,4-Dioxino(2,3-e)indole-8-carboxamide, 2,3-dihydro-N-(3-phenylpropyl)-2-(((3-phenylpropyl)amino)methyl)-, monohydrochloride]", "values": [
      {"measurement": "IC50", "setting": "[1]; [7]", "value": 26, "unit": "nM"},
      {"measurement": "IC50", "setting": "[3]; [6]", "value": 350, "unit": "nM"},
      {"measurement": "ED50", "setting": "[2]; [8]", "value": "> 30", "unit": "mg/kg"}
    ]},
    {"smiles": "O=C1NCN(c2ccccc2)C12CCN(CC1COc3ccc4[nH]c(CO)cc4c3O1)CC2", "note": "(stereo not shown) [XIl, 1,3,8-Triazaspiro(4.5)decan-4-one, 8-((2,3-dihydro-8-(hydroxymethyl)-7H-1,4-dioxino(2,3-e)indol-2-yl)methyl)-1-phenyl-]", "values": [
      {"measurement": "IC50", "setting": "[1]; [4]", "value": 2.3, "unit": "nM"}
    ]},
    {"smiles": "O=C1NCN(c2ccccc2)C12CCN(CC1COc3ccc4[nH]ccc4c3O1)CC2", "note": "(stereo not shown) [XIm, 1,3,8-Triazaspiro(4.5)decan-4-one, 8-((2,3-dihydro-7H-1,4-dioxino(2,3-e)indol-2-yl)methyl)-1-phenyl]", "values": [
      {"measurement": "IC50", "setting": "[1]; [4]", "value": 1, "unit": "nM"},
      {"measurement": "IC50", "setting": "[3]", "value": 0.13, "unit": "nM"}
    ]},
    {"smiles": "C=CCn1c(C(=O)OC)cc2c3c(ccc21)OCC(CN1CCC2(CC1)C(=O)NCN2c1ccccc1)O3", "note": "(stereo not shown) [XIn, 7H-1,4-Dioxino(2,3-e)indole-8-carboxylic acid, 2,3-dihydro-2-((4-oxo-1-phenyl-1,3,8-triazaspiro(4.5)dec-8-yl)methyl)-7-(2-propenyl)-, methyl ester]", "values": [
      {"measurement": "IC50", "setting": "[1]; [4]", "value": 268, "unit": "nM"}
    ]},
    {"smiles": "C=CCN1CN(c2ccccc2)C2(CCN(CC3COc4ccc5c(cc(C(=O)OC)n5CC=C)c4O3)CC2)C1=O", "note": "(stereo not shown) [XIo, 7H-1,4-Dioxino(2,3-e)indole-8-carboxylic acid, 2,3-dihydro-2-((4-oxo-1-phenyl-3-(2-propenyl)-1,3,8-triazaspiro(4.5)dec-8-yl)methyl)-7-(2-propenyl)-, methyl ester]", "values": [
      {"measurement": "IC50", "setting": "[1]; [4]", "value": 280, "unit": "nM"},
      {"measurement": "IC50", "setting": "[3]", "value": 97.3, "unit": "nM"}
    ]},
    {"smiles": "C=CCN1CN(c2ccccc2)C2(CCN(CC3COc4ccc5[nH]c(C(=O)OC)cc5c4O3)CC2)C1=O", "note": "(stereo not shown) [XIp, 7H-1,4-Dioxino(2,3-e)indole-8-carboxylic acid, 2,3-dihydro-2-((4-oxo-1-phenyl-3-(2-propenyl)-1,3,8-triazaspiro(4.5)dec-8-yl)methyl)-, methyl ester]", "values": [
      {"measurement": "IC50", "setting": "[1]; [4]", "value": 11, "unit": "nM"}
    ]},
    {"smiles": "COC(=O)C1Cc2c(ccc3c2OC(CN2CCC4(CC2)C(=O)NCN4c2ccccc2)CO3)N1", "note": "(stereo not shown) [a', 7H-1,4-Dioxino(2,3-e)indole-8-carboxylic acid 2,3,8,9-tetrahydro-2-((4-oxo-1-phenyl-1,3,8-triazaspiro(4.5)dec-8-yl)methyl)-, methyl ester]", "values": [
      {"measurement": "ED50", "setting": "[2]; [5]", "value": 17.3, "unit": "mg/kg"}
    ]},
    {"smiles": "O=C(O)c1cc2c3c(ccc2[nH]1)OCC(CN1CCC2(CC1)C(=O)NCN2c1ccccc1)O3", "note": "(stereo not shown) [b']", "values": [
      {"measurement": "IC50", "setting": "[1]; [4]", "value": 24.7, "unit": "nM"},
      {"measurement": "IC50", "setting": "[3]", "value": 52.2, "unit": "nM"},
      {"measurement": "Hypothermia ED50", "setting": "[2]; mice, subcutaneous", "value": 30.0, "unit": "mg/kg"}
    ]}
  ]
}
